Experimental data from ChEMBL document CHEMBL2434968, “The thermodynamic basis for the use of lipophilic efficiency (LipE) in enthalpic optimizations” (Bioorg Med Chem Lett, 2013).

Columns and labels:
Cathepsin D = Cathepsin D (Homo sapiens, UniProt P07339); test: Inhibition of cathepsin D (unknown origin)
Protease = Protease (Human immunodeficiency virus 1, UniProt Q9YQ12); test: Binding affinity to HIV1 protease by ITC analysis
[1] = Inhibition of pepsin (unknown origin); parameters: species or system Homo sapiens

Sequence of Protease (Q9YQ12 whole entry): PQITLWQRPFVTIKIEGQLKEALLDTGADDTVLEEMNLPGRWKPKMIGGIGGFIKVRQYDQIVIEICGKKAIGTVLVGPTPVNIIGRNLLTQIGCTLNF
Sequence of Cathepsin D (P07339 65-162 limits assumed): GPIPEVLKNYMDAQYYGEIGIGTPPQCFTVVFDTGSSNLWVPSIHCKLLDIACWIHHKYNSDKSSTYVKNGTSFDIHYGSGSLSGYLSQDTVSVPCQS
Sequence of Cathepsin D (P07339 169-412 limits assumed): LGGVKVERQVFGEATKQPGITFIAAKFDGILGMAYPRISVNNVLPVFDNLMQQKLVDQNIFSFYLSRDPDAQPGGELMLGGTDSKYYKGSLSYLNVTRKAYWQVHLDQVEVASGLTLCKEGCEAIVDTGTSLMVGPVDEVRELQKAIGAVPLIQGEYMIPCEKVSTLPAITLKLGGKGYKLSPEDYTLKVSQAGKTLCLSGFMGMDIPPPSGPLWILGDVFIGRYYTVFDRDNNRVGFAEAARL

Row | Compound | Kd (Cathepsin D) [nM] | Kd (Protease) [nM] | Kd [1] [nM]
1 | Cc1cccc(C)c1OCC(=O)N[C@@H](Cc1ccccc1)[C@H](O)C(=O)N1CSC(C)(C)C1C(=O)N[C@H]1c2ccccc2C[C@H]1O (stereo partly drawn) | 22 | 0.14 | 345
2 | CC1(C)SCN(C(=O)[C@@H](O)[C@H](Cc2ccccc2)NC(=O)[C@H](CS(C)(=O)=O)NC(=O)COc2cccc3cnccc23)C1C(=O)N[C@H]1c2ccccc2C[C@H]1O (stereo partly drawn) |  | 0.021 | 
3 | CSC[C@H](NC(=O)COc1cccc2cnccc12)C(=O)N[C@@H](Cc1ccccc1)[C@H](O)C(=O)N1CSC(C)(C)C1C(=O)N[C@H]1c2ccccc2C[C@H]1O (stereo partly drawn) |  | 0.013 | 
4 | CC1(C)SCN(C(=O)[C@@H](O)[C@H](Cc2ccccc2)NC(=O)COc2ccccc2)C1C(=O)N[C@H]1c2ccccc2C[C@H]1O (stereo partly drawn) | 142 | 11.8 | 850
